Measurements: patent publication US10273236B2, “Macrocyclic factor XIa inhibitors bearing heterocyclic groups” (Bristol-Myers Squibb Company, priority 2014, dated 2019)
Structures can show the parent of a compound that is named as a salt.

How the values were obtained:
[1] = target: T1, purified human Factor XIa (Homo sapiens, UniProt P03951); assay: Factor XIa inhibition assay, chromogenic substrate S-2366 (Ki); format: biochemical
T1 construct: purchased Haematologic Technologies
Procedure: (§1) The effectiveness of compounds of the present invention as inhibitors of the coagulation Factors XIa, VIIa, IXa, Xa, XIIa, plasma kallikrein or thrombin, can be determined using a relevant purified serine protease, respectively, and an appropriate synthetic substrate. The rate of hydrolysis of the chromogenic or fluorogenic substrate by the relevant serine protease was measured both in the absence and presence of compounds of the present invention. […] A decrease in the rate of absorbance or fluorescence change in the presence of inhibitor is indicative of enzyme inhibition. Such methods are known to one skilled in the art. The results of this assay are expressed as the inhibitory constant, Ki.
Factor XIa determinations were made in 50 mM HEPES buffer at pH 7.4 containing 145 mM NaCl, 5 mM KCl, and 0.1% PEG 8000 (polyethylene glycol; JT Baker or Fisher Scientific). Determinations were made using purified human Factor XIa at a final concentration of 25-200 pM (Haematologic Technologies) and the synthetic substrate S-2366 (pyroGlu-Pro-Arg-pNA; Chromogenix or AnaSpec) at a concentration of 0.0002-0.001 M.
(§2) Values of Ki were determined by allowing the protease to react with the substrate in the presence of the inhibitor.
(§3) Reactions were allowed to go for periods of 20-180 minutes (depending on the protease) and the velocities (rate of absorbance or fluorescence change versus time) were measured.
(§4) The following relationships were used to calculate Ki values: (Vmax*S)/(Km+S) (vo−vs)/vs=I/(Ki(1+S/Km)) for a competitive inhibitor with one binding site; or vs/vo=A+((B−A)/1+((IC50/(I)^n))); and Ki=IC50/(1+S/Km) for a competitive inhibitor where: […]

[2] = target: T2, purified human plasma kallikrein (Homo sapiens, UniProt P03952); assay: Plasma kallikrein inhibition assay, chromogenic substrate S-2302 (Ki); format: biochemical
T2 construct: Plasma prekallikrein is a zymogen of a trypsin-like serine protease; purchased Enzyme Research Laboratories
Procedure: as §1
Plasma kallikrein determinations were made in 0.1 M sodium phosphate buffer at a pH of 7.5 containing 0.1-0.2 M sodium chloride and 0.5% PEG 8000. Determinations were made using purified human plasma kallikrein (Enzyme Research Laboratories) at a final assay concentration of 200 pM and the synthetic substrate S-2302 (H-(D)-Pro-Phe-Arg-pNA; Chromogenix) at a concentration of 0.00008-0.0004 M.
as §2, §3, §4

T2 sequence (P03952 391-638 limits assumed): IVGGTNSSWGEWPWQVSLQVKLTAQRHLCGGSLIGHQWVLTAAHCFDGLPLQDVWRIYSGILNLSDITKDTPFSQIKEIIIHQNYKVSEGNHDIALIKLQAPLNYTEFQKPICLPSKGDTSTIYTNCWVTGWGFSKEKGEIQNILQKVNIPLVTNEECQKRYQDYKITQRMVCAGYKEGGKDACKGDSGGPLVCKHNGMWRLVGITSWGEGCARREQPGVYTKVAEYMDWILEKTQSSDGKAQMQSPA
T2 sequence (P03952 20-390 partner limits assumed): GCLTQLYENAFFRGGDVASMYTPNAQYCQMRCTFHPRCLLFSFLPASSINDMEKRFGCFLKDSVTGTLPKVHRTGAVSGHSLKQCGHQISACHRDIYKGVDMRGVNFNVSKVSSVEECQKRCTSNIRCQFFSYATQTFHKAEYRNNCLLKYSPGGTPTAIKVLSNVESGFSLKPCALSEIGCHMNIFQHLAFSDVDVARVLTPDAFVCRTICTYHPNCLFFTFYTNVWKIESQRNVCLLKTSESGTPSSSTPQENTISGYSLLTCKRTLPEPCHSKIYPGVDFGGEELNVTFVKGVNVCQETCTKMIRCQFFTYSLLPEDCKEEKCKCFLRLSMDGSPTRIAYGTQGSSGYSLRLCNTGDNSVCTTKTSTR
T1 sequence (P03951 388-625 limits assumed): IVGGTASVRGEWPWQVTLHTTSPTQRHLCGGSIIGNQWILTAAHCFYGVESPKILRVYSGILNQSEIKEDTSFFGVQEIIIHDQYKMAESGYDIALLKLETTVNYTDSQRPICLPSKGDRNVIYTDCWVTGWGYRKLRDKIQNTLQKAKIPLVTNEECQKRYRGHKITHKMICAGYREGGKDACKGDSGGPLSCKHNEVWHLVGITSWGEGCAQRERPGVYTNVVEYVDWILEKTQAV
T1 sequence (P03951 19-387 partner limits assumed): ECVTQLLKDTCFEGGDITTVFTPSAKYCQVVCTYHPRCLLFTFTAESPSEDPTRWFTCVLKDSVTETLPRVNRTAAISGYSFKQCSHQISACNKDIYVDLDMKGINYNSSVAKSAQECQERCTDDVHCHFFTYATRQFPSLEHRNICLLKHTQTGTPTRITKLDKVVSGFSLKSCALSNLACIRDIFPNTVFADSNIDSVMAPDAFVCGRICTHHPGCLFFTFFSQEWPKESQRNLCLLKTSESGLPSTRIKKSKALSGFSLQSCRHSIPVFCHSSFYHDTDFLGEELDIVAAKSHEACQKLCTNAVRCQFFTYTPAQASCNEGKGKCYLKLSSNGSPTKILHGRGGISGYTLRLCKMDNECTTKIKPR

C[C@@H]1CCC[C@H](N2CCC(c3c(Br)ccc(Cl)c3F)=CC2=O)c2cc(ccn2)-c2c(cnn2C)NC1=O [Example 36, (9R,13S)-13-[4-(6-bromo-3-chloro-2-fluorophenyl)-6-oxo-1,2,3,6-tetrahydropyridin-1-yl]-3,9-dimethyl-3,4,7,15-tetraazatricyclo[12.3.1.0^2,6]octadeca-1(18),2(6),4,14,16-pentaen-8-one]
Ki [1]: 1.7 nM
Ki [2]: 5 nM

[2H]C([2H])([2H])n1ncc2c1-c1ccnc(c1)[C@@H](N1CCC(c3cc(Cl)ccc3C#N)=CC1=O)CCC[C@@H](C)C(=O)N2 [Example 32, 4-chloro-2-{1-[(9R,13S)-3-(^2H3)methyl-9-methyl-8-oxo-3,4,7,15-tetraazatricyclo[12.3.1.0^2,6]octadeca-1(18),2(6),4,14,16-pentaen-13-yl]-6-oxo-1,2,3,6-tetrahydropyridin-4-yl}benzonitrile]
Ki [1]: 2.4 nM
Ki [2]: 4 nM

[2H]C([2H])([2H])n1ncc2c1-c1ccnc(c1)[C@@H](N1CCC(c3c(C(F)(F)F)ccc(Cl)c3F)=CC1=O)CCC[C@@H](C)C(=O)N2 [Example 18, (9R,13S)-13-{4-[3-chloro-2-fluoro-6-(trifluoromethyl)phenyl]-6-oxo-1,2,3,6-tetrahydropyridin-1-yl}-3-(^2H3)methyl-9-methyl-3,4,7,15-tetraazatricyclo[12.3.1.0^2,6]octadeca-1(18),2(6),4,14,16-pentaen-8-one]
Ki [1]: 2.8 nM
Ki [2]: 30 nM

C[C@@H]1CCC[C@H](N2CCC(c3cc(Cl)ccc3-n3cc(Cl)nn3)=CC2=O)c2cc(F)cc(c2)-c2c(cnn2C)NC1=O [Example 59, (9R,13S)-13-{4-[5-chloro-2-(4-chloro-1H-1,2,3-triazol-1-yl)phenyl]-6-oxo-1,2,3,6-tetrahydropyridin-1-yl}-16-fluoro-3,9-dimethyl-3,4,7-triazatricyclo[12.3.1.0^2,6]octadeca-1(18),2(6),4,14,16-pentaen-8-one]
Ki [1]: 0.1 nM
Ki [2]: 4 nM

[2H]C([2H])([2H])n1ncc2c1-c1ccnc(c1)[C@@H](N1CCC(c3cc(Cl)ccc3-n3cc(Cl)nn3)=CC1=O)CCC[C@@H](C)C(=O)N2 [Example 17, (9R,13S)-13-{4-[5-chloro-2-(4-chloro-1H-1,2,3-triazol-1-yl)phenyl]-6-oxo-1,2,3,6-tetrahydropyridin-1-yl}-3-(^2H3)methyl-9-methyl-3,4,7,15-tetraazatricyclo[12.3.1.0^2,6]octadeca-1(18),2(6),4,14,16-pentaen-8-one]
Ki [1]: 0.15 nM
Ki [2]: 10 nM

C[C@H]1C(=O)Nc2cnn(C)c2-c2ccnc(c2)[C@@H](n2ccc(-c3c(C(F)(F)F)ccc(Cl)c3F)cc2=O)CCC1F (stereo partly drawn) [Example 28, (9S,13S)-13-{4-[3-chloro-2-fluoro-6-(trifluoromethyl)phenyl]-2-oxo-1,2-dihydropyridin-1-yl}-10-fluoro-3,9-dimethyl-3,4,7,15-tetraazatricyclo[12.3.1.0^2,6]octadeca-1(18),2(6),4,14,16-pentaen-8-one trifluoroacetate]
Ki [1]: 3 nM
Ki [2]: 25 nM

C[C@@H]1CCC[C@H](N2CCC(c3c(-c4cnn(C(F)F)c4)ccc(Cl)c3F)=CC2=O)c2cc(ccn2)-c2c(cnn2C)NC1=O [Example 41, (9R,13S)-13-(4-{3-chloro-6-[1-(difluoromethyl)-1H-pyrazol-4-yl]-2-fluorophenyl}-6-oxo-1,2,3,6-tetrahydropyridin-1-yl)-3,9-dimethyl-3,4,7,15-tetraazatricyclo[12.3.1.0^2,6]octadeca-1(18),2(6),4,14,16-pentaen-8-one]
Ki [1]: 1 nM
Ki [2]: 34 nM

C[C@@H]1CCC[C@H](N2CCC(c3c(C(C)(F)F)ccc(Cl)c3F)=CC2=O)c2cc(ccn2)-c2c(cnn2C)NC1=O [Example 33, (9R,13S)-13-{4-[3-chloro-6-(1,1-difluoroethyl)-2-fluorophenyl]-6-oxo-1,2,3,6-tetrahydropyridin-1-yl}-3,9-dimethyl-3,4,7,15-tetraazatricyclo[12.3.1.0^2,6]octadeca-1(18),2(6),4,14,16-pentaen-8-one]
Ki [1]: 5.7 nM
Ki [2]: 50 nM

C[C@@H]1CCC[C@H](N2CCC(c3cc(Cl)ccc3-n3ccnn3)=CC2=O)c2cc(ccn2)-c2c(cnn2C2CCC2)NC1=O [Example 54, (9R,13S)-13-{4-[5-chloro-2-(1H-1,2,3-triazol-1-yl)phenyl]-6-oxo-1,2,3,6-tetrahydropyridin-1-yl}-3-cyclobutyl-9-methyl-3,4,7,15-tetraazatricyclo[12.3.1.0^2,6]octadeca-1(18),2(6),4,14,16-pentaen-8-one]
Ki [1]: 7.1 nM
Ki [2]: 150 nM

C[C@@H]1CCC[C@H](N2CCC(c3c(F)ccc(Cl)c3F)=CC2=O)c2cc(ccn2)-c2c(cnn2C)NC1=O [Example 2, (9R,13S)-13-[4-(3-chloro-2,6-difluorophenyl)-6-oxo-1,2,3,6-tetrahydropyridin-1-yl]-3,9-dimethyl-3,4,7,15-tetraazatricyclo[12.3.1.0^2,6]octadeca-1(18),2(6),4,14,16-pentaen-8-one]
Ki [1]: 10 nM
Ki [2]: 30 nM

C[C@@H]1CCC[C@H](N2CCC(c3cc(Cl)ccc3-n3cc(C(F)(F)F)nn3)=CC2=O)c2cc(ccn2)-c2c(cnn2C)NC1=O [Example 40, (9R,13S)-13-(4-{5-chloro-2-[4-(trifluoromethyl)-1H-1,2,3-triazol-1-yl]phenyl}-6-oxo-1,2,3,6-tetrahydropyridin-1-yl)-3,9-dimethyl-3,4,7,15-tetraazatricyclo[12.3.1.0^2,6]octadeca-1(18),2(6),4,14,16-pentaen-8-one]
Ki [1]: 0.1 nM
Ki [2]: 6 nM

[2H]C([2H])([2H])n1ncc2c1-c1cccc(c1)[C@@H](N1CCC(c3cc(Cl)ccc3-n3cc(Cl)nn3)=CC1=O)CCC[C@@H](C)C(=O)N2 [Example 51, (9R,13S)-13-{4-[5-chloro-2-(4-chloro-1H-1,2,3-triazol-1-yl)phenyl]-6-oxo-1,2,3,6-tetrahydropyridin-1-yl}-3-(^2H3)methyl-9-methyl-3,4,7-triazatricyclo[12.3.1.0^2,6]octadeca-1(18),2(6),4,14,16-pentaen-8-one]
Ki [1]: 0.18 nM
Ki [2]: 5 nM

C[C@@H]1CCC[C@H](N2CCC(c3cc(Cl)ccc3C#N)=CC2=O)c2cc(ccn2)-c2c(cnn2C)NC1=O [Example 57, 4-chloro-2-{1-[(9R,13S)-3,9-dimethyl-8-oxo-3,4,7,15-tetraazatricyclo[12.3.1.0^2,6]octadeca-1(18),2(6),4,14,16-pentaen-13-yl]-6-oxo-1,2,3,6-tetrahydropyridin-4-yl}benzonitrile]
Ki [1]: 4 nM
Ki [2]: 14 nM

C[C@H]1C(=O)Nc2cnn(C)c2-c2ccnc(c2)[C@@H](N2CCC(c3cc(Cl)ccc3-n3cc(Cl)nn3)=CC2=O)CCC1F (single isomer, unassigned; isomer a) [Example 13]
Ki [1]: 0.1 nM
Ki [2]: 6 nM

C[C@@H]1CCC[C@H](n2ncc(-c3cc(Cl)ccc3-n3cc(C(F)(F)F)nn3)cc2=O)c2cc(ccn2)-c2c(cnn2C)NC1=O [Example 61, (9R,13S)-13-(4-{5-chloro-2-[4-(trifluoromethyl)-1H-1,2,3-triazol-1-yl]phenyl}-6-oxo-1,6-dihydropyridazin-1-yl)-3,9-dimethyl-3,4,7,15-tetraazatricyclo[12.3.1.02,6]octadeca-1(18),2(6),4,14,16-pentaen-8-one trifluoroacetate]
Ki [1]: 0.51 nM
Ki [2]: 66 nM

C[C@@H]1CCC[C@H](N2CCC(c3c(C(F)(F)F)ccc(Cl)c3F)=CC2=O)c2cc(ccn2)-c2nn(-c3cncnc3)cc2NC1=O [Example 47, (9R,13S)-13-{4-[3-chloro-2-fluoro-6-(trifluoromethyl)phenyl]-6-oxo-1,2,3,6-tetrahydropyridin-1-yl}-9-methyl-4-(pyrimidin-5-yl)-3,4,7,15-tetraazatricyclo[12.3.1.0^2,6]octadeca-1(18),2,5,14,16-pentaen-8-one]
Ki [1]: 5.4 nM
Ki [2]: 13 nM

[2H]C([2H])([2H])n1ncc2c1-c1cc(ccn1)[C@@H](n1ncc(-c3cc(Cl)ccc3-n3cc(C(F)(F)F)nn3)cc1=O)CCC[C@@H](C)C(=O)N2 [Example 64, (9R,13S)-13-(4-{5-Chloro-2-[4-(trifluoromethyl)-1H-1,2,3-triazol-1-yl]phenyl}-6-oxo-1,6-dihydropyridazin-1-yl)-3-(^2H3)methyl-9-methyl-3,4,7,17-tetraazatricyclo[12.3.1.0^2,6]octadeca-1(18),2(6),4,14,16-pentaen-8-one]
Ki [1]: 0.71 nM
Ki [2]: 52.6 nM
